Measurements as given in PubChem BioAssay AID200 (DTP/NCI, 2004).
“And” between values parts separate entries of the source, which are not always exact repeats. Equal entries are not always repeated. Inconclusive results and toxic doses are left out. Where a SMILES comes first, the peptide text is derived from it. [ ]: non-standard residue; d: D form. The star is where a group is joined. Cbz = O=C(OCc1ccccc1)*; Nva = CCC[CH](N)C(=O)O

Tested on: B6C3F1 mice, B16 melanoma ip, median survival T/C
Assay: NCI In Vivo Anticancer Drug Screen. Data for tumor model B16 Melanoma (intraperitoneal) in B6C3F1 mice
Conditions: endpoint: median survival time, higher = longer survival
Summary of the method: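 Readout: survival or tumor size in treated mice relative to vehicle controls (T/C). Model uses transplantable tumors grown in mice.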

[1] = dose: 12.5 mg/kg/injection, schedule: Q01DX009 (ip), vehicle: Klucel (hydroxypropylcellulose) (HPC)
[2] = dose: 25.0 mg/kg/injection, schedule: Q01DX009 (ip), vehicle: Klucel (hydroxypropylcellulose) (HPC)
[3] = dose: 100.0 mg/kg/injection, schedule: Q01DX009 (ip), vehicle: Klucel (hydroxypropylcellulose) (HPC)
[4] = dose: 12.5 mg/kg/injection, schedule: Q01DX009 (ip), vehicle: saline with Tween-80
[5] = dose: 25.0 mg/kg/injection, schedule: Q01DX009 (ip), vehicle: saline with Tween-80
[6] = dose: 50.0 mg/kg/injection, schedule: Q01DX009 (ip), vehicle: saline with Tween-80
[7] = dose: 100.0 mg/kg/injection, schedule: Q01DX009 (ip), vehicle: saline with Tween-80
[8] = dose: 200.0 mg/kg/injection, schedule: Q01DX009 (ip), vehicle: saline with Tween-80
[9] = dose: 400.0 mg/kg/injection, schedule: Q01DX009 (ip), vehicle: saline with Tween-80
[10] = dose: 50.0 mg/kg/injection, schedule: Q01DX009 (ip), vehicle: Klucel (hydroxypropylcellulose) (HPC)
[11] = dose: 400.0 mg/kg/injection, schedule: Q01DX009 (ip), vehicle: Klucel (hydroxypropylcellulose) (HPC)
[12] = dose: 200.0 mg/kg/injection, schedule: Q01DX009 (ip), vehicle: Klucel (hydroxypropylcellulose) (HPC)
[13] = dose: 100.0 mg/kg/injection, schedule: Q01DX009 (ip), vehicle: saline

`COc1c(CNC(=O)CCl)cc2[nH]c(C)cc2c1CNC(=O)CCl` was tested, and the T/C [1] was 104 % of control, the T/C [2] was 105 % of control and the T/C [3] was 116 % of control.

`O=c1[nH]cnc2c1ccn2C1OC(CO)C(O)C1O` (stereo not given) was tested, and the T/C (dose: 0.37 mg/kg/injection, schedule: Q01DX009 (ip), vehicle: saline) was 106 % of control, the T/C (dose: 0.75 mg/kg/injection, schedule: Q01DX009 (ip), vehicle: saline) was 99 % of control and the T/C (dose: 1.5 mg/kg/injection, schedule: Q01DX009 (ip), vehicle: saline) was 106 % of control. The T/C (dose: 3.0 mg/kg/injection, schedule: Q01DX009 (ip), vehicle: saline) was 113 % of control, the T/C (dose: 6.0 mg/kg/injection, schedule: Q01DX009 (ip), vehicle: saline) was 115 % of control and the T/C (dose: 12.0 mg/kg/injection, schedule: Q01DX009 (ip), vehicle: saline) was 105 % of control.

In the case of `COc1cccc2c1C(=O)c1c(O)c3c(c(O)c1C2=O)C[C@@](O)(C(C)=O)C[C@@H]3OC1CC(NC(=O)C(N)CC(C)C)C(O)C(C)O1` (stereo not given in full), the T/C (dose: 6.25 mg/kg/injection, schedule: Q01DX001 (ip), vehicle: saline) is reported as 179 % of control and the T/C (dose: 12.5 mg/kg/injection, schedule: Q01DX001 (ip), vehicle: saline) is reported as 204 % of control.

In the case of `CC1(C)CC23C4COC(=O)C2CCC1C3CC4=O` (stereo not given), the T/C (dose: 6.25 mg/kg/injection, schedule: Q01DX009 (ip), vehicle: DMSO) is reported as 89 % of control, the T/C (dose: 12.5 mg/kg/injection, schedule: Q01DX009 (ip), vehicle: DMSO) is reported as 90 % of control and the T/C (dose: 25.0 mg/kg/injection, schedule: Q01DX009 (ip), vehicle: DMSO) is reported as 97 % of control. The T/C (dose: 50.0 mg/kg/injection, schedule: Q01DX009 (ip), vehicle: DMSO) was 99 % of control, the T/C (dose: 100.0 mg/kg/injection, schedule: Q01DX009 (ip), vehicle: DMSO) was 88 % of control and the T/C (dose: 200.0 mg/kg/injection, schedule: Q01DX009 (ip), vehicle: DMSO) was 96 % of control.

For `ClC(Cl)(Cl)C1=NCc2nnn(Cc3ccccc3)c2N1`, the T/C (dose: 12.5 mg/kg/injection, schedule: Q01DX009 (ip), vehicle: distilled water + Tween-80) was 101 % of control, the T/C [4] was 105 % of control and the T/C (dose: 25.0 mg/kg/injection, schedule: Q01DX009 (ip), vehicle: distilled water + Tween-80) was 96 % of control. The T/C [5] was 110 % of control, the T/C (dose: 50.0 mg/kg/injection, schedule: Q01DX009 (ip), vehicle: distilled water + Tween-80) was 93 % of control and the T/C [6] was 108 % of control. For the same compound, the T/C (dose: 100.0 mg/kg/injection, schedule: Q01DX009 (ip), vehicle: distilled water + Tween-80) was 91 % of control, the T/C [7] was 105 % of control and the T/C (dose: 200.0 mg/kg/injection, schedule: Q01DX009 (ip), vehicle: distilled water + Tween-80) was 101 % of control. For the same compound, the T/C [8] was 95 % of control, the T/C (dose: 400.0 mg/kg/injection, schedule: Q01DX009 (ip), vehicle: distilled water + Tween-80) was 101 % of control and the T/C [9] was 95 % of control.

`Cc1ccc(C)c2c1CCC2C` (stereo not given) was tested, and the T/C [6] was 93 % of control and the T/C [7] was 86 % of control.

In the case of `C=C1C(=O)C23[C@H](O)C1CC[C@H]2[C@]12COC3(O)[C@@H](O)[C@@H]1C(C)(C)CC[C@@H]2O`, the T/C (dose: 1.56 mg/kg/injection, schedule: Q01DX009 (ip), vehicle: saline with Tween-80) is reported as 98 % of control, the T/C (dose: 3.12 mg/kg/injection, schedule: Q01DX009 (ip), vehicle: saline with Tween-80) is reported as 106 % of control and the T/C (dose: 4.5 mg/kg/injection, schedule: Q01DX009 (ip), vehicle: Klucel (hydroxypropylcellulose) (HPC)) is reported as 97 % of control. For the same compound, the T/C (dose: 6.25 mg/kg/injection, schedule: Q01DX009 (ip), vehicle: saline with Tween-80) was 115 % of control, the T/C (dose: 9.0 mg/kg/injection, schedule: Q01DX009 (ip), vehicle: Klucel (hydroxypropylcellulose) (HPC)) was 93 % of control and the T/C [4] was 108 % of control. The T/C (dose: 18.0 mg/kg/injection, schedule: Q01DX009 (ip), vehicle: Klucel (hydroxypropylcellulose) (HPC)) was 99 % of control and the T/C [5] was 98 % of control.

For `CC(NC(=O)OCc1ccccc1)C(=O)NC(CC(N)=O)C(=O)O` (stereo not drawn) (Cbz-Ala-Asn-OH; configuration not given here), the T/C (dose: 12.0 mg/kg/injection, schedule: Q01DX009 (ip), vehicle: Klucel (hydroxypropylcellulose) (HPC)) was 101 % of control, the T/C [2] was 101 % of control and the T/C [10] was 98 % of control. The T/C [3] was 107 % of control and the T/C [11] was 104 % of control.

`O=C1N[C@@H]2C(=C[C@H](O)[C@@H](O)[C@H]2O)c2cc3c(c(O)c21)OCO3` was tested, and the T/C (dose: 0.62 mg/kg/injection, schedule: Q01DX009 (ip), vehicle: saline with Tween-80) was 115 % of control, the T/C (dose: 1.25 mg/kg/injection, schedule: Q01DX009 (ip), vehicle: saline with Tween-80) was 111 % of control and the T/C (dose: 2.5 mg/kg/injection, schedule: Q01DX009 (ip), vehicle: saline with Tween-80) was 109 % of control. The T/C (dose: 5.0 mg/kg/injection, schedule: Q01DX009 (ip), vehicle: saline with Tween-80) was 123 % of control.

With `CCCCC(NC(=O)CN)C(=O)O` (stereo not given) the T/C [3] was 103 % of control, the T/C [12] was 107 % of control and the T/C [11] was 122 % of control.

`Cc1ccc(C(=N)c2ccccc2Cc2cccc3ccccc23)c(C)c1` was tested, and the T/C (dose: 0.75 mg/kg/injection, schedule: Q01DX009 (ip), vehicle: saline with Tween-80) was 107 % of control, the T/C (dose: 1.5 mg/kg/injection, schedule: Q01DX009 (ip), vehicle: saline with Tween-80) was 112 % of control and the T/C (dose: 3.0 mg/kg/injection, schedule: Q01DX009 (ip), vehicle: saline with Tween-80) was 97 % of control. For the same compound, the T/C (dose: 6.0 mg/kg/injection, schedule: Q01DX009 (ip), vehicle: saline with Tween-80) was 98 % of control.

In the case of `O=C1CN(CCN2CC(=O)N(CN3CCOCC3)C(=O)C2)CC(=O)N1CN1CCOCC1`, the T/C (dose: 12.5 mg/kg/injection, schedule: Q01DX009 (ip), vehicle: water) is reported as 107 % of control, the T/C (dose: 25.0 mg/kg/injection, schedule: Q01DX009 (ip), vehicle: water) is reported as 114 % of control and 118 % of control (2×) and the T/C (dose: 50.0 mg/kg/injection, schedule: Q01DX009 (ip), vehicle: water) is reported as 150 % of control and 154 % of control.

`CC(=O)OC1=NC(C)c2c1cc(OC(C)=O)[nH]c2=O` (stereo not given) was tested, and the T/C (dose: 6.25 mg/kg/injection, schedule: Q01DX009 (ip), vehicle: Klucel (hydroxypropylcellulose) (HPC)) was 116 % of control and 105 % of control, the T/C [1] was 110 % of control and 98 % of control and the T/C [2] was 113 % of control and 100 % of control. The T/C [10] was 90 % of control and 101 % of control and the T/C [3] was 88 % of control.

For `S=c1sc2ccccc2n1CN1CCOCC1`, the T/C [4] was 99 % of control and 102 % of control, the T/C (dose: 18.0 mg/kg/injection, schedule: Q01DX009 (ip), vehicle: saline with Tween-80) was 89 % of control and the T/C [5] was 109 % of control and 112 % of control. The T/C (dose: 30.0 mg/kg/injection, schedule: Q01DX009 (ip), vehicle: saline with Tween-80) was 91 % of control, the T/C [6] was 113 % of control and 100 % of control and the T/C (dose: 83.33 mg/kg/injection, schedule: Q01DX009 (ip), vehicle: saline with Tween-80) was 100 % of control. For the same compound, the T/C [7] was 102 % of control and 105 % of control, the T/C (dose: 138.88 mg/kg/injection, schedule: Q01DX009 (ip), vehicle: saline with Tween-80) was 106 % of control and the T/C [8] was 95 % of control and 101 % of control.

In the case of `CC(Oc1ccccc1-c1ccccc1)C(=O)N(C)C` (stereo not given), the T/C [4] is reported as 95 % of control, the T/C [5] is reported as 100 % of control and the T/C [6] is reported as 95 % of control. The T/C [7] was 98 % of control, the T/C [8] was 106 % of control and the T/C [9] was 100 % of control.

`CC1=C(CC/C(C)=C/CCC2=CCC(C3=CC(=O)OC3O)OC2O)C(C)(C)CCC1` (stereo not given) was tested, and the T/C (dose: 3.0 mg/kg/injection, schedule: Q01DX009 (ip), vehicle: Klucel (hydroxypropylcellulose) (HPC)) was 90 % of control and the T/C (dose: 6.0 mg/kg/injection, schedule: Q01DX009 (ip), vehicle: Klucel (hydroxypropylcellulose) (HPC)) was 90 % of control.

With `CCCC(NC(=O)OCc1ccccc1)C(=O)NC(CCSC)C(N)=O` (stereo not given) (Cbz-[Nva]-Met-NH2; configuration not given here) the T/C [3] was 104 % of control, the T/C [12] was 103 % of control and the T/C [11] was 93 % of control.

With `[N-]=[N+]=CC(=O)CCC(=O)C=[N+]=[N-]` the T/C (dose: 1.56 mg/kg/injection, schedule: Q01DX009 (ip), vehicle: DMSO) was 124 % of control.

For `NC(CNc1ccc(O)cc1)C(=O)O` (stereo not given), the T/C (dose: 75.0 mg/kg/injection, schedule: Q01DX009 (ip), vehicle: saline) was 111 % of control, the T/C [13] was 103 % of control and the T/C (dose: 150.0 mg/kg/injection, schedule: Q01DX009 (ip), vehicle: saline) was 101 % of control.

With `CN(CO)c1nc(N(C)CO)nc(N(C)CO)n1` the T/C (dose: 12.5 mg/kg/injection, schedule: Q01DX009 (ip), vehicle: saline) was 113 % of control and 115 % of control, the T/C (dose: 25.0 mg/kg/injection, schedule: Q01DX009 (ip), vehicle: saline) was 118 % of control and the T/C [13] was 153 % of control and 190 % of control.
